# Experiments:
# angiotensin-IV (AT4) = target: T1, angiotensin-IV (AT4) (Homo sapiens, UniProt P01019); assay: Aβ selectivity of oxygenation, Test Example 9; type: biochemical; conditions: peptide 20 μM, catalyst 5 μM, 780 nm (7 mW), 37° C., 30 minutes
# T1 construct: angiotensin-IV (AT4), Met-enkephalin (ME), or somatostatin (Sst) (20 μM in each case)
# Description: (§1) Aβ1-42 isopeptide (concentration: 250 μM in 0.1% aqueous solution of trifluoroacetic acid), angiotensin IV (200 μM aqueous solution), Met-enkephalin (200 μM aqueous solution), and somatostatin (200 μM aqueous solution) were added to a phosphate buffer or phosphate buffer saline (pH 7.4) (with 0.1 M aqueous solution of sodium hydroxide, as necessary) so that a final peptide concentration of 20 μM or 40 μM (pH 7.4) was reached. Before being subjected to oxygenation reaction, the Aβ1-42 solution was incubated at 37° C. for 1 to 3 hours. The phosphate buffer containing 40 μM of Aβ was diluted with a Dulbecco's modified Eagle's medium (DMEM, Life Technologies) containing 0.1% horse serum and buffered with 25 mM of 4-(2-hydroxyethyl)-1-piperazineethanesulfonic acid (HEPES).
# (§2) Solutions of the compounds with a final concentration of 2 μM were used for evaluation of oxygenation of Aβ1-42. Solutions of the compounds with a final concentration of 5 μM were used for evaluation of peptide selectivity. […] A control group without light irradiation was additionally prepared. Reaction was analyzed through monitor analysis with a MALDI-TOF MS. Degree of oxygenation was determined as a ratio: degree of oxygenation (%)=(total of MS intensities for n[O] adducts)/(MS intensity for native+total of MS intensities for n[O] adducts)×100. Aliquots of each reaction solution were desalted with a ZipTip U-C18 (Merck Millipore), as necessary, before mass spectrometry.
# Aβ peptide = target: T2, Aβ peptide (Homo sapiens, UniProt P05067); assay: Aβ selectivity of oxygenation, Test Example 9; type: biochemical; conditions: peptide 20 μM, catalyst 5 μM (25 mol %), 780 nm (7 mW), 37° C., 30 minutes
# T2 construct: Aβ1-42 isopeptide (concentration: 250 μM in 0.1% aqueous solution of trifluoroacetic acid)
# T2 sequence (P05067 672-713): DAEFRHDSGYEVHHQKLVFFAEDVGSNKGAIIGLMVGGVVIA
# Description: as §1, §2
# somatostatin (Sst) = target: T3, somatostatin (Sst) (Homo sapiens, UniProt P61278); assay: Aβ selectivity of oxygenation, Test Example 9; type: biochemical; conditions: peptide 20 μM, catalyst 5 μM, 780 nm (7 mW), 37° C., 30 minutes
# T3 construct: angiotensin-IV (AT4), Met-enkephalin (ME), or somatostatin (Sst) (20 μM in each case)
# Description: as §1, §2
# Met-enkephalin (ME) = target: T4, Met-enkephalin (ME) (Homo sapiens, UniProt P01210); assay: Aβ selectivity of oxygenation, Test Example 9; type: biochemical; conditions: peptide 20 μM, catalyst 5 μM, 780 nm (7 mW), 37° C., 30 minutes
# T4 construct: angiotensin-IV (AT4), Met-enkephalin (ME), or somatostatin (Sst) (20 μM in each case)
# Description: as §1, §2
# PC 12 cells = assay: Cytotoxicity under light irradiation, WST-8 cell viability, Test Example 2; type: cell-based, rat; conditions: LED 660 nm, 10 mW, 5 minutes, then 48 hours
# Description: A culture medium for rat adrenal medulla-derived pheochromocytoma PC 12 cells (purchased from RIKEN, Japan) seeded on a poly-D-lysine-coated 96-well plate was replaced with 75 μL of a Dulbecco's modified Eagle's medium containing 0.1% horse serum, and the culture was incubated in a 5% CO2 atmosphere at 37° C. for 1 day, and 25 μL of a phosphate buffer saline (pH 7.4) containing a inventive compound was then added thereto. Thereafter, the mixed solution was incubated under LED irradiation (wavelength: 660 nm, 10 mW) (without light irradiation for dark) at 37° C. for 5 minutes. Further, the cell culture plate containing the reaction solution was incubated in a 5% CO2 atmosphere at 37° C. for 48 hours. Finally, the Cell Count Reagent SF (10 μL: purchased from NACALAI TESQUE, INC.) containing WST-8 was added, and the culture was incubated in a 5% CO2 atmosphere at 37° C. for 3 hours, and thereafter the cell viability was determined from the absorbance at 450 nm (reference wavelength: 655 nm).
# Arctic Aβ1-42 = assay: Oxygenation reaction in mouse brain extract, Test Example 6; type: biochemical; conditions: mouse brain lysate, light 780 nm
# Description: The brain excised from an eight-month-old App knock-in (App^NL-C-F/NL-C-F) mouse (Alzheimer's model mouse) was separated into the cerebral cortex, the hippocampus, and the residual brain tissues. The cerebral cortex and the hippocampus were homogenized together in a phosphate buffer saline, and the suspension was stored at −80° C. […] At an arbitrary point of time, an arbitrary aliquot of the reaction mixture was diluted with formic acid to a final concentration of 70%, concentrated, and redissolved in a 6 M aqueous solution of urea.
# [1] = Maximum wavelength λmax of photocatalysts; type: physicochemical; conditions: Table 2
# Aβ1-42 [2] = target: T5, Aβ1-42 (Homo sapiens, UniProt P05067); assay: Degree of oxygenation of pre-aggregated Aβ1-42 (MALDI-TOF MS), Test Example 10; type: biochemical; conditions: pre-aggregated Aβ1-42 20 μM, catalyst 2 μM, phosphate buffer pH 7.4, 780 nm (14 mW), 37° C., 30 minutes
# T5 construct: phosphate buffer (pH 7.4)/cell culture solution (containing 0.1% horse serum) (1:3) containing Aβ1-42 (10 μM)
# T5 sequence (P05067 672-713): as above
# Description: as §1
# Solutions of the compounds with a final concentration of 2 μM were used for evaluation of oxygenation of Aβ1-42. Solutions of the compounds with a final concentration of 5 μM were used for evaluation of peptide selectivity. Each mixture was subjected to light irradiation with an LED (wavelength: 500, 660, or 780 nm) at a distance of approximately 5 to 10 cm at room temperature. A control group without light irradiation was additionally prepared. Reaction was analyzed through monitor analysis with a MALDI-TOF MS. Degree of oxygenation was determined as a ratio: degree of oxygenation (%)=(total of MS intensities for n[O] adducts)/(MS intensity for native+total of MS intensities for n[O] adducts)×100. Aliquots of each reaction solution were desalted with a ZipTip U-C18 (Merck Millipore), as necessary, before mass spectrometry.
# a: A phosphate buffer (pH 7.4) solution containing pre-aggregated Aβ1-42 (20 μM, incubated at 37° C. for 3 hours) and a catalyst (2 μM) was subjected to light irradiation (wavelength: 660 nm) at 37° C. for 30 minutes. Thereafter, the reaction mixture was analyzed by using a MALDI-TOF MS.
# a: A phosphate buffer (pH 7.4) containing pre-aggregated Aβ1-42 (20 μM, obtained through incubation at 37° C. for 3 hours) and a catalyst (2 μM) were subjected to light irradiation at 780 nm (14 mW) at 37° C. for 30 minutes. The reaction mixture was analyzed by using a MALDI-TOF MS.
# [3] = Conversion of furfuryl alcohol under different glycerol concentrations, Test Example 8; conditions: compound 2 μM, furfuryl alcohol 2 mM, glycerol-methanol 0, 10, 30, or 50% glycerol, 780 nm, room temperature
# Description: To a glycerol-methanol mixed solvent (glycerol: 0, 10, 30, or 50%), furfuryl alcohol or N-benzoyl-Met (2 mM in each case) and the compound E (2 μM) were added, and the mixture was subjected to light irradiation (wavelength: 780 nm) at room temperature, and the concentration of furfuryl alcohol or N-benzoyl-Met was quantified by using a UV absorptiometer with LC/MS 10 minutes, 20 minutes, and 30 minutes after the initiation of light irradiation.
# Aβ1-42 [4] = target: T5, Aβ1-42; assay: Oxygenation under mouse skin, Test Example 7; type: in vivo; conditions: microtube with Aβ1-42 20 μM aggregated 3 hours, implanted in back skin, LED 780 nm, 30 minutes
# Description: A microtube containing a phosphate buffer containing Aβ1-42 (20 μM, aggregated in advance for 3 hours) and the compound E or a compound 3 [9-(6-bromo-3-methyl-1,3-benzotriazol-3-ium-2-yl)-julolidine] was implanted in the back skin of a wild mouse, and light irradiation with an LED lamp was performed from the outside of the mouse body at a wavelength of 780 nm for 30 minutes (FIG. 10). As a control experiment, another microtube containing the same components (Aβ1-42 (20 μM, aggregated in advance for 3 hours) and the compound E or the compound 3) was directly subjected to light irradiation outside of the mouse body. The reaction mixture was analyzed by using a MALDI-TOF MS, and then subjected to ZipTip treatment for analysis. The percentage of oxygenation ratio was calculated from the percentage of oxygenation ratio under the skin and the oxygenation ratio outside of the skin “[oxygenation ratio under mouse skin/oxygenation ratio outside of mouse skin]×100”.
compound,measurement,setting,value
O=C(O)CCCCCN1CCCc2cc(/C=C/C3=[O+][B-](F)(C(F)(F)C(F)(F)F)OC(/C=C/c4cc5c6c(c4)CCCN6CCC5)=C3Br)ccc21 (stereo not drawn) [Compound E],oxygenation rate of angiotensin-IV,angiotensin-IV (AT4),lower than 5%
same,oxygenation of pre-aggregated Aβ peptide,Aβ peptide,44%
same,oxygenation rate of somatostatin,somatostatin (Sst),lower than 5%
same,oxygenation rate of Met-enkephalin,Met-enkephalin (ME),lower than 5%
same,toxicity under light irradiation (ranking),PC 12 cells,the lowest
same,decrease of peak intensity (conversion) of Arctic Aβ1-42,Arctic Aβ1-42; 30 minutes,43%
same,decrease of peak intensity (conversion) of Arctic Aβ1-42,Arctic Aβ1-42; 60 minutes,60%
same,decrease of peak intensity (conversion) of Arctic Aβ1-42,Arctic Aβ1-42; 150 minutes,83%
same,Maximum wavelength λmax (nm),[1],639 nm
same,Degree of oxygenation (%) of Aβ42 (λ = 780 nm),Aβ1-42 [2],58%
same,oxygenation reaction rate of furfuryl alcohol,[3],higher as the viscosity of the solvent was higher
same,percentage of oxygenation ratios [oxygenation ratio under mouse skin/oxygenation ratio outside of mouse skin]×100,Aβ1-42 [4],65%
